Results on four compounds are retold here after patent publication US7112574B2, “C2,8-disubstituted adenosine derivatives and their different uses” (priority 2001, dated 2006).

In one data set the target is adenosine A2A receptor (Rattus norvegicus, UniProt P30543). Put plainly: biochemical. Particulars: for A3/A2A: ratio of Ki A3 (human) to Ki A2A (rat). As for the experimental part:
(§1) Incubations were carried out for 1 hr at 37° C. and were terminated by rapid filtration over Whatman GF/B filters, using a Brandell cell harvester (Brandell, Gaithersburg, Md.). Tubes were washed three times with 3 ml of buffer. Radioactivity was determined in a Beckman 5500B γ-counter. Nonspecific binding was determined in the presence of 10^−5 M R-PIA.
(§2) All compounds prepared were tested in radioligand binding assays to determine their affinities for the adenosine A1 receptor in rat brain cortex, the A2A receptor in rat striatum and the human A3 receptor as expressed in HEK 293 cells (Table 2, hereinafter). The Ki values were computed from the displacement curves obtained by nonlinear regression of the competition curves with the software package Prism (Graph Pad, San Diego, Calif.)
(§3) For the adenosine A1 receptor, the tritiated antagonist, [^3H]-1,3-dipropyl-8-cyclopentylxanthine ([^3H]DPCPX), and for the adenosine A2A receptor, the tritiated antagonist [^3H]ZM 241385 were used. Since radiolabeled antagonists are not commercially available for the adenosine A3 receptor, [125I]AB-MECA, an A3 receptor agonist, was used. Displacement experiments were performed in the absence of GTP.

A further data set has as its target T1, adenosine A1 receptor (Rattus norvegicus, UniProt P25099).
T1 sequence (P25099 1-326): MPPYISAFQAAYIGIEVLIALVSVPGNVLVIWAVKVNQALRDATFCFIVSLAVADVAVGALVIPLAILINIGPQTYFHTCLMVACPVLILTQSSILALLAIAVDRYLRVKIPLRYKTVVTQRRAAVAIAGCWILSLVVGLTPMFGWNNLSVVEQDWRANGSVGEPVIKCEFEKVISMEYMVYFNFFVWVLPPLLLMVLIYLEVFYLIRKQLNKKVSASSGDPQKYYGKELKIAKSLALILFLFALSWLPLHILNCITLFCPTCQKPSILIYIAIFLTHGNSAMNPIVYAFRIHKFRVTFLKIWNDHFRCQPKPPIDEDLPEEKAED
Put plainly: biochemical. Particulars: for inhibition at 10 µM: read-out: % displacement at 10^-5 M, A1. The method, then:
as §1, §2, §3

Data set [1] concerns the target human adenosine A2A receptors (Homo sapiens, UniProt P29274). The method, then:
CHO cells expressing the human adenosine A2A receptors were grown overnight as a monolayer in 24 wells tissue culture plates (400 μl/well; 2×10^5 cells/well). cAMP generation was performed in Dulbecco's Modified Eagles Medium (DMEM)/N-2-hydroxyethylpiperazin-N′-2-ethansulfonic acid HEPES) buffer (0.60 g HEPES/50 ml DMEM pH 7.4). To each well, washed three times with DMEM/HEPES buffer (250 μl), 100 μl DMEM/HEPES buffer, 100 μl adenosine deaminase (final concentration 5 IU/ml) and 100 μl of a mixture of rolipram and cilostamide (final concentration 50 μM each) were added. After incubation for 40 minutes at 37° C., 100 μL agonist was added. After 15 minutes at 37° C., the reaction was terminated by removing the medium and adding 200 μl 0.1 M HCl. Wells were stored at −20° C. until assay.
The amounts of cAMP were determined after a protocol with cAMP binding protein^12 with the following minor modifications. As a buffer was used 150 mM K2HPO4/10 mM EDTA/0.2% Bovine Serum Albumine (BSA) at pH 7.5. Samples (20 μl+30 μl 0.1 M HCl) were incubated for at least 2.5 hours at 0° C. before filtration over Whatman GF/B filters. […] Filters were counted in Packard Emulsifier Safe scintillation fluid (3.5 ml) after 24 hours of extraction.
All compounds prepared were also tested in a functional assay.

The next data set addresses T2, human A3 receptor (Homo sapiens, UniProt P0DMS8).
T2 construct: expressed in transfected cells; host or cells: HEK 293
T2 sequence (P0DMS8 1-318): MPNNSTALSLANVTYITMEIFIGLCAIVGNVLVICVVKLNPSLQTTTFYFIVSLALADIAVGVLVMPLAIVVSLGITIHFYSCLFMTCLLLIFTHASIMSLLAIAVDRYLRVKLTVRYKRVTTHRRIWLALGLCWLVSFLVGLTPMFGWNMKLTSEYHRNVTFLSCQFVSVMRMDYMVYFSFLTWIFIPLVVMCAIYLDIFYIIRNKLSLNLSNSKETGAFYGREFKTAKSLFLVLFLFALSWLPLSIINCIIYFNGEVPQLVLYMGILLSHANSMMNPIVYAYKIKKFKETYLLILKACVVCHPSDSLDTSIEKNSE
Put plainly: Radioligand binding, displacement of [125I]AB-MECA from human A3 receptor expressed in HEK 293 cells. As for the experimental part:
as §1, §2, §3
In general terms: Loss of bound radioactivity is the signal in a displacement assay; it reports binding, not function.

The compound `CCCC/C=C/c1nc(N)c2nc(NC)n([C@@H]3O[C@H](CO)[C@@H](O)[C@H]3O)c2n1` [Compound 17, 2-((E)-1-Hexenyl)-8-methylaminoadenosine] gave a melting point of 161 to 166 °C. At adenosine A2A receptor, the Ki was determined as 663 ± 106 nM and the A3/A2A was found to be 20.3. The inhibition at 10 µM on adenosine A1 receptor is 17.9%. The “% cAMP production hA2A” value in data set [1] was 54% (49–59). On human A3 receptor, this compound showed a Ki of 13400 ± 2130 nM.

The compound `CCCC/C=C/c1nc(N)c2nc(NCC)n([C@@H]3O[C@H](CO)[C@@H](O)[C@H]3O)c2n1` [Compound 18, 2-((E)-1-hexenyl)-8-ethylaminoadenosine] returned a melting point of 128 to 130 °C. Also, on adenosine A2A receptor, affinity was put at a Ki of 1840 ± 300 nM and the A3/A2A is listed as 9.53. Further, the inhibition at 10 µM on adenosine A1 receptor turned out to be 30%. In data set [1], the “% cAMP production hA2A” value was 65% (63–66). The compound further returned a Ki on human A3 receptor of 17500 ± 2100 nM.

Consider `CCCC/C=C/c1nc(N)c2nc(NCCC)n([C@@H]3O[C@H](CO)[C@@H](O)[C@H]3O)c2n1` [Compound 19, 2-((E)-1-hexenyl)-8-propylaminoadenosine], for which the melting point is 170 to 172 °C. In addition, at adenosine A2A receptor, the affinity, expressed as Ki, was 678 ± 25 nM and the A3/A2A amounted to 21.1. Also, on adenosine A1 receptor, the inhibition at 10 µM turned out to be 49.5%. The “% cAMP production hA2A” value in data set [1] was 73% (70–76). This compound yielded a Ki at human A3 receptor of 14300 ± 2160 nM.

`CCCC/C=C/c1nc(N)c2nc(NCc3ccccc3)n([C@@H]3O[C@H](CO)[C@@H](O)[C@H]3O)c2n1` [Compound 21, 2-((E)-1-hexenyl)-8-benzylaminoadenosine] had a melting point of 153 to 155 °C. Besides, on adenosine A2A receptor ([3H]ZM241385, rat striatal membranes, 10 μM, n=2, mean value), the “% displacement at 10^-5 M, A2A” value is 26.3%. At adenosine A1 receptor, the inhibitory constant (Ki) was 2110 ± 560 nM. Moreover, in data set [1], the “% cAMP production hA2A” value is 73% (72–75). Moreover, the “% displacement at 10^-5 M, A3” value on human A3 receptor ([125I]AB-MECA, human A3 receptor in HEK 293 cells, 10 μM, n=2, mean value) came to 24.3%.

For orientation: melting point means the temperature of the solid-liquid transition. A word on the Ki: it is the equilibrium dissociation constant of an inhibitor or competing ligand from its target. Low readings indicate a stronger hold on the target, high ones a looser hold on the target.
